Assay results published in PMC9654571, “Water-Soluble Truncated Fatty Acid–Porphyrin Conjugates Provide Photo-Sensitizer Activity for Photodynamic Therapy in Malignant Mesothelioma” (Cancers, 2022).
≈ marks a conversion by molar mass, not a printed value. Where two headings read alike, the source gives them in different places. Marks after values point to notes of the source that are not given here.

Experiments:
[1] = UV/vis absorbance spectroscopy in DMSO, water and 1 M HCl (stacking, aqueous solubility); type: physicochemical; details: absorption spectra in water vs DMSO and 1 M HCl
Description: UV/vis absorbance spectroscopy in DMSO, water and 1 M HCl. For each of the porphyrins 5, 6, and 7, 5 mg, was dissolved in 30 µL of 1 M NaOH H this was diluted to 5 mL with distilled to give stock solutions of concentrations 0.926 mM, 0.88 mM and 0.77 mM, respectively. In a quartz 96 well plate, 20 µL was added to a well and diluted to a volume of 320 µL with either DMSO, water or 1 M HCl.

[2] = Annexin V-FITC/PI cell death analysis by flow cytometry, NCI-H28; type: cell-based, human; details: human, NCI-H28 cells, read-out: viable cells
Description: (§1) Cells were harvested in accordance with methods previously described and seeded into 24-well plates (Nunc, London, UK) at a density of 2 × 10^5 cells per well in 1000 μL of complete RPMI; the culture plates were seeded approximately 24 h before PDT. Cell treatment and irradiation was performed in accordance with methods previously described.
(§2) Annexin V-FITC/PI staining and cell death analysis was performed at both 24- and 48 h time points following PDT (representative flow cytometry dot-plots from Annexin V-FITC/PI-stained cells in Supplementary Materials-Figure S2). Non-adherent cells were harvested through the removal of culture medium and adherent monolayers were trypsinized and returned to the removed media. Harvested cells were removed from media via centrifugation (5 min, 400× g) (VWR Mega Star, Leicestershire, UK) and resuspended in Annexin V Binding Buffer. Following a second centrifugation, Annexin V Binding Buffer was discarded, and cell pellets were resuspended in the residual volume. Cells were stained with Annexin V-FITC (5 μL) and PI (10 μL) and incubated at room temperature for 15 min protected from light. 200 µL of Annexin V Binding Buffer was added prior to immediate analysis using a BD FACSCalibur (BD Biosciences, Wokingham, UK) and data from 10,000 events was collected. Flow cytometry results were analyzed using FlowJo™ v10.8 Software (BD Life Sciences). Quadrants consisted of Viable (Annexin V-FITC^−/PI^−), early stage apoptotic (Annexin V-FITC^+/PI^−) and late-stage apoptotic/necrotic (Annexin V-FITC^+/PI^+) populations.

[3] = test system: NCI-H28 cells; experiment: as above; type: cell-based, human; details: light; for EC50: read-out: EC50 (50% reduction in viable cell populations), PDT activity
Description: as §1, §2

[4] = WST-8 cell viability assay after PDT, NCI-H28; type: cell-based, human; details: human, NCI-H28 cells, NCI-H28, 5 μg/mL, dark, read-out: cell viability relative to untreated control
Description: (§3) Porphyrin PS stock solutions 4, 5, and 6 (Scheme 1) were prepared by dissolving a 5 mg aliquot in 500 μL of 1 M NaOH. This was added to 9.5 mL of complete media to prepare a 500 μg/mL stock solution. Stock solutions were filter sterilized using a Millipore PES membrane filter (Merck, Watford, UK). Working solutions were prepared immediately before PDT experiments and consisted of six treatments: an untreated control, vehicle control, and four porphyrin concentrations (5, 10, 15, and 20 μg/mL).
(§4) Cells were detached using a trypsin/EDTA solution (Lonza). Trypan blue (0.4% v/v) exclusion was used to count viable cells before seeded into 96-well plates (Nunc) at a density of 5 × 10^3 cells per well in 200 μL of complete RPMI. Cell culture plates were seeded approximately 24 h before PDT. Media was aspirated and replaced with equal volumes of the respective PS treatment. For the purpose of background subtraction, PS treatments were also added to wells without cells. Following 3 h of incubation (37 °C, 5% CO2:95% air), plates were irradiated for 15 min on a 15 W light box (UVP, Cambridge, UK). […]
(§5) Cell viability was assessed by the colorimetric WST-8 assay. […] The plates were incubated for 3 h (37 °C, 5% CO2:95% air) and then analyzed at 450 nm using a Clariostar Plate Reader (BMG Labtech, Ortenberg, Germany). Corrected absorbance was calculated in each case by subtraction of the media only controls. […]

[5] = test system: NCI-H28 cells; experiment: WST-8 cell viability assay after PDT, NCI-H28; type: cell-based, human; details: Homo sapiens; NCI-H28, 5 μg/mL, light, 48 h; read-out: cell viability relative to untreated control
Description: as §3, §4, §5

[6] = WST-8 cell viability assay after PDT, Met-5a; type: cell-based; details: human, Met-5a cells, light, read-out: cell viability relative to untreated control
Description: as §3
(§6) Cells were detached using a trypsin/EDTA solution (Lonza). Trypan blue (0.4% v/v) exclusion was used to count viable cells before seeded into 96-well plates (Nunc) at a density of 5 × 10^3 cells per well in 200 μL of complete RPMI. Cell culture plates were seeded approximately 24 h before PDT. Media was aspirated and replaced with equal volumes of the respective PS treatment. For the purpose of background subtraction, PS treatments were also added to wells without cells. Following 3 h of incubation (37 °C, 5% CO2:95% air), plates were irradiated for 15 min on a 15 W light box (UVP, Cambridge, UK). Experiments performed parallel to dark-treated control plates.
Cell viability was assessed by the colorimetric WST-8 assay. Following 24 h of incubation (37 °C, 5% CO2:95% air), 10 μL of WST-8 was added to each cell-containing well of the 96-well plates. The plates were incubated for 3 h (37 °C, 5% CO2:95% air) and then analyzed at 450 nm using a Clariostar Plate Reader (BMG Labtech, Ortenberg, Germany). Corrected absorbance was calculated in each case by subtraction of the media only controls. Finally, percentage cell viability was expressed relative to untreated control values.

[7] = WST-8 cell viability assay after PDT, MSTO-211H; type: cell-based, human; details: human, MSTO-211H cells, dark; for viability at 48 h, 5 μg/mL: read-out: cell viability relative to untreated control
Description: as §3, §6
(§7) Cell viability was assessed by the colorimetric WST-8 assay. […] The plates were incubated for 3 h (37 °C, 5% CO2:95% air) and then analyzed at 450 nm using a Clariostar Plate Reader (BMG Labtech, Ortenberg, Germany). Corrected absorbance was calculated in each case by subtraction of the media only controls. Finally, percentage cell viability was expressed relative to untreated control values.

[8] = test system: MSTO-211H cells; experiment: WST-8 cell viability assay after PDT, MSTO-211H; type: cell-based, human; details: Homo sapiens, 5 μg/mL, light, 48 h, read-out: cell viability relative to untreated control
Description: as §3, §6, §7

[9] = Annexin V-FITC/PI cell death analysis by flow cytometry, MSTO-211H; type: cell-based, human; details: human, MSTO-211H cells, dark, 48 h, read-out: viable cells
Description: as §1, §2

[10] = test system: MSTO-211H cells; experiment: as above; type: cell-based, human; details: light; for EC50: read-out: EC50 (50% reduction in viable cell populations), PDT activity
Description: as §1, §2

[11] = test system: Met-5a cells; experiment: Annexin V-FITC/PI cell death analysis by flow cytometry, Met-5a; type: cell-based, human; details: for EC50: Homo sapiens, read-out: EC50 (50% reduction in viable cell populations), PDT activity
Description: as §1, §2

[12] = test system: MSTO-211H cells; experiment: Cellular localization by high content fluorescence microscopy; type: cell-based, human; details: 24 h incubation
Description: Cells were harvested in accordance with methods previously described and seeded into 24-well plates (Nunc, London, UK) at a density of 25,000 treated with porphyrin working solutions made up from the porphyrin PS stock solutions and incubated for 24 h. The cells were visualized using a Cytation 5 (Agilent Technologies, Cheadle, UK) high content microscopy platform at 20× magnification.

[13] = Homo sapiens, NCI-H28, 24 h, NCI-H28, 24 h time point
[14] = Homo sapiens, NCI-H28, 48 h, NCI-H28, 48 h time point
[15] = Homo sapiens, 24 h, 24 h time point
[16] = Homo sapiens, 48 h, 48 h time point
[17] = 20 μg/mL, time point not stated

Row | SMILES | EC50 [3, 13] | EC50 [3, 14] | EC50 (50% reduction in viable cell populations), PDT activity ([3]; NCI-H28, 24 h time point) | viability at 24 h, 5 μg/mL [6] | viability at 48 h, 5 μg/mL [6] | viability at 48 h, 5 μg/mL [7] | viability at 5 µg/mL [8] | EC50 [10, 15] | EC50 [10, 16] | EC50 ([11]; 24 h time point, light) | EC50 ([11]; 48 h time point, light) | other results
1 | O=C(O)CCCCOc1cccc(-c2c3nc(c(-c4cccc(OCCCCC(=O)O)c4)c4ccc([nH]4)c(-c4cccc(OCCCCC(=O)O)c4)c4nc(c(-c5cccc(OCCCCC(=O)O)c5)c5ccc2[nH]5)C=C4)C=C3)c1 [C5SHU] | 7.8 µg/mL (≈ 7.23 µM) | 6 ± 1 µg/mL (≈ 5.56 µM) | 7.7 ± 1 µg/mL (≈ 7.13 µM) | ~28% | ~11% | 100% | 22% | 7.7 µg/mL (≈ 7.13 µM) | 2.8 ± 1.5 µg/mL (≈ 2.59 µM) | > 20 µg/mL | 5.1 ± 1 µg/mL (≈ 4.73 µM) | stacking in aqueous solutions [1]: least evidence of stacking; viability ([2]; NCI-H28, dark, unchanged with porphyrin dose): ~95%; apoptotic cell population ([3]; NCI-H28, 10 μg/mL, 24 h): 16%; necrotic cell population ([3]; NCI-H28, 10 μg/mL, 24 h): 53%; viability at 48 h, 5 μg/mL [4]: 116%; viability at 5 µg/mL [5]: 16%; viability at 48 h, 15 μg/mL ([7]; 15 μg/mL, read-out: dark toxicity (cell viability)): 30%; viability at 48 h, 20 μg/mL ([7]; 20 μg/mL, read-out: dark toxicity (cell viability)): 26%; viability at 48 h, 15 μg/mL ([9]; 15 μg/mL): 63.6%; viability at 48 h, 20 μg/mL ([9]; 20 μg/mL): 46.1%; apoptotic cell population ([10]; 10 μg/mL, 24 h): 49%; necrotic cell population ([10]; 10 μg/mL, 24 h): 34%; EC50 (50% reduction in viable cell populations), PDT activity ([10]; 24 h time point): 7.8 ± 3 µg/mL (≈ 7.23 µM); cell death ([11]; 24 h, all dose concentrations): no significant cell death; dark toxicity ([11]; 24 h, all dose concentrations): negligible dark toxicity; dark toxicity ([11]; 48 h): Negligible dark toxicity; predominant mode of cell death ([11]; 48 h, light): necrosis
2 | O=C(O)CCCCCCOc1cccc(-c2c3nc(c(-c4cccc(OCCCCCCC(=O)O)c4)c4ccc([nH]4)c(-c4cccc(OCCCCCCC(=O)O)c4)c4nc(c(-c5cccc(OCCCCCCC(=O)O)c5)c5ccc2[nH]5)C=C4)C=C3)c1 [C7SHU] | > 20 µg/mL | > 20 µg/mL | >20 ^a μg/mL | 66% | 30% |  |  | 9.6 ± 3 µg/mL (≈ 8.06 µM) | 7.7 ± 2 µg/mL (≈ 6.46 µM) | > 20 µg/mL | > 20 µg/mL | cellular localization [12]: localize in the cytosolic region; viability at 48 h, 10 μg/mL ([2]; NCI-H28, 10 μg/mL, 48 h): 75%
3 | O=C(O)CCCCCOc1cccc(-c2c3nc(c(-c4cccc(OCCCCCC(=O)O)c4)c4ccc([nH]4)c(-c4cccc(OCCCCCC(=O)O)c4)c4nc(c(-c5cccc(OCCCCCC(=O)O)c5)c5ccc2[nH]5)C=C4)C=C3)c1 [C6SHU] | > 20 µg/mL | > 20 µg/mL |  |  |  | 119% | 38% | 14 µg/mL (≈ 12.3 µM) | 14 ± 4 µg/mL (≈ 12.3 µM) | > 20 µg/mL | > 20 µg/mL | IC50 ([3]; Homo sapiens, NCI-H28, NCI-28 as printed, time point not stated, read-out: IC50, PDT effect): > 20 µg/mL; viability at 20 µg/mL ([3]; Homo sapiens, NCI-H28, 20 μg/mL, time point not stated, read-out: viable cells): 59%; apoptotic cell population [10, 17]: 23%; necrotic cell population [10, 17]: 50%; viability at 20 µg/mL ([10]; Homo sapiens, 20 μg/mL, time point not stated, read-out: viable cell population): 20%
